Experimental data as given in patent US10167262B2, “Herbicidal substituted 3-arylpyrazoles” (FMC CORPORATION, priority 2014, dated 2019).
Like-named read-outs stand apart in the source and are kept apart here.

Key:
Experiment in all cases: Test C pre-/postemergence greenhouse test, plant response rating 0-100
Assay type in all cases: in vivo
[1] = system: blackgrass (Alopecurus myosuroides); settings: Alopecurus myosuroides; for pest or weed control at 62 g/ha: 62 g ai/ha; for pest or weed control at 125 g/ha: 125 g ai/ha; for pest or weed control at 250 g/ha: 250 g ai/ha; for pest or weed control at 500 g/ha: 500 g ai/ha
In short: (§1)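 Pre- and postemergence greenhouse test: seeds sown in loam/sand and treated preemergence, or plants at 2–18 cm (1- to 4-leaf stage) in peat-based medium sprayed postemergence, with compounds in non-phytotoxic solvent plus surfactant. Visual rating versus untreated controls after 13–15 days, 0 (no effect) to 100 (complete control).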

[2] = system: johnsongrass (Sorghum halepense); settings: Sorghum halepense; for pest or weed control at 62 g/ha: 62 g ai/ha; for pest or weed control at 125 g/ha: 125 g ai/ha; for pest or weed control at 250 g/ha: 250 g ai/ha; for pest or weed control at 500 g/ha: 500 g ai/ha
In short: as §1

[3] = system: velvetleaf (Abutilon theophrasti); settings: Abutilon theophrasti; for pest or weed control at 62 g/ha: 62 g ai/ha; for pest or weed control at 125 g/ha: 125 g ai/ha; for pest or weed control at 250 g/ha: 250 g ai/ha; for pest or weed control at 500 g/ha: 500 g ai/ha
In short: as §1

[4] = system: giant foxtail (Setaria faberii); settings: Setaria faberi; for pest or weed control at 62 g/ha: 62 g ai/ha; for pest or weed control at 125 g/ha: 125 g ai/ha; for pest or weed control at 250 g/ha: 250 g ai/ha; for pest or weed control at 500 g/ha: 500 g ai/ha
In short: as §1

[5] = system: winter wheat (Triticum aestivum); settings: Triticum aestivum; for plant injury at 62 g/ha: 62 g ai/ha; for plant injury at 125 g/ha: 125 g ai/ha; for plant injury at 250 g/ha: 250 g ai/ha; for plant injury at 500 g/ha: 500 g ai/ha
In short: as §1

corn (Zea mays) = settings: Zea mays, pre-emergence, Preemergence
In short: as §1

[6] = system: large (Lg) crabgrass (Digitaria sanguinalis); settings: Digitaria sanguinalis; for pest or weed control at 62 g/ha: 62 g ai/ha; for pest or weed control at 125 g/ha: 125 g ai/ha; for pest or weed control at 250 g/ha: 250 g ai/ha; for pest or weed control at 500 g/ha: 500 g ai/ha
In short: as §1

[7] = system: Italian ryegrass (Lolium multiflorum); settings: Lolium multiflorum; for pest or weed control at 62 g/ha: 62 g ai/ha; for pest or weed control at 125 g/ha: 125 g ai/ha; for pest or weed control at 250 g/ha: 250 g ai/ha; for pest or weed control at 500 g/ha: 500 g ai/ha
In short: as §1

[8] = system: yellow nutsedge (Cyperus esculentus); settings: Cyperus; for pest or weed control at 62 g/ha: 62 g ai/ha; for pest or weed control at 125 g/ha: 125 g ai/ha; for pest or weed control at 250 g/ha: 250 g ai/ha; for pest or weed control at 500 g/ha: 500 g ai/ha
In short: as §1

[9] = system: pigweed (Amaranthus retroflexus); settings: Amaranthus retroflexus; for pest or weed control at 62 g/ha: 62 g ai/ha; for pest or weed control at 250 g/ha: 250 g ai/ha; for pest or weed control at 500 g/ha: 500 g ai/ha
In short: as §1

[10] = system: lambsquarters (Chenopodium album); settings: Chenopodium album; for pest or weed control at 62 g/ha: 62 g ai/ha; for pest or weed control at 125 g/ha: 125 g ai/ha; for pest or weed control at 250 g/ha: 250 g ai/ha; for pest or weed control at 500 g/ha: 500 g ai/ha
In short: as §1

soybean (Glycine max) = settings: Glycine max; for plant injury at 62 g/ha: 62 g ai/ha; for plant injury at 125 g/ha: 125 g ai/ha; for plant injury at 250 g/ha: 250 g ai/ha; for plant injury at 500 g/ha: 500 g ai/ha
In short: as §1

[11] = system: ragweed (common ragweed, Ambrosia elatior); settings: Ambrosia artemisiifolia; for pest or weed control at 62 g/ha: 62 g ai/ha; for pest or weed control at 125 g/ha: 125 g ai/ha; for pest or weed control at 250 g/ha: 250 g ai/ha; for pest or weed control at 500 g/ha: 500 g ai/ha
In short: as §1

[12] = post-emergence, Postemergence, read-out: Plant response rating (0 to 100), Blackgrass
[13] = post-emergence, Postemergence, scale 0 to 100
[14] = pre-emergence, Preemergence, read-out: Plant response rating, Blackgrass
[15] = post-emergence, Postemergence, read-out: Plant response rating (0 to 100), Johnsongrass
[16] = pre-emergence, Preemergence, read-out: Plant response rating, Johnsongrass
[17] = post-emergence, Postemergence, read-out: Plant response rating (0 to 100), Velvetleaf
[18] = pre-emergence, Preemergence, read-out: Plant response rating, Velvetleaf
[19] = post-emergence, Postemergence, read-out: Plant response rating (0 to 100), Foxtail, Giant
[20] = pre-emergence, Preemergence, read-out: Plant response rating, Foxtail, Giant
[21] = post-emergence, Postemergence, read-out: Plant response rating (0 to 100), Wheat
[22] = pre-emergence, Preemergence, read-out: Plant response rating, Wheat
[23] = post-emergence, Postemergence, read-out: Plant response rating (0 to 100), Crabgrass, Large
[24] = pre-emergence, Preemergence, read-out: Plant response rating, Crabgrass, Large
[25] = post-emergence, Postemergence, read-out: Plant response rating (0 to 100), Ryegrass, Italian
[26] = pre-emergence, Preemergence, read-out: Plant response rating, Ryegrass, Italian
[27] = post-emergence, Postemergence, read-out: Plant response rating (0 to 100), Nutsedge, Yellow
[28] = pre-emergence, Preemergence, read-out: Plant response rating, Nutsedge, Yellow
[29] = post-emergence, Postemergence, read-out: Plant response rating (0 to 100), Lambsquarters
[30] = pre-emergence, Preemergence, read-out: Plant response rating, Lambsquarters
[31] = post-emergence, Postemergence, read-out: Plant response rating (0 to 100), Soybean
[32] = pre-emergence, Preemergence, read-out: Plant response rating, Soybean
[33] = post-emergence, Postemergence, read-out: Plant response rating (0 to 100), Ragweed
[34] = pre-emergence, Preemergence, read-out: Plant response rating, Ragweed

C#CCn1cc(C(=O)c2ccccc2)c(-c2cc(Cl)cc(Cl)c2)n1 [Compound 39, [3-(3,5-dichlorophenyl)-1-(2-propyn-1-yl)-1H-pyrazol-4-yl]phenylmethanone]
75%: pest or weed control at 62 g/ha [3, 17] | pest or weed control at 125 g/ha ([9]; pre-emergence, Preemergence, 125 g ai/ha, read-out: Plant response rating, Pigweed)
65%: pest or weed control at 125 g/ha [3, 18] | pest or weed control at 250 g/ha ([3]; pre-emergence, Preemergence)
90%: pest or weed control at 62 g/ha ([9]; post-emergence, Postemergence, read-out: Plant response rating (0 to 100), Pigweed)
55%: pest or weed control at 62 g/ha [3, 18]
100%: pest or weed control at 250 g/ha [10, 13] | pest or weed control at 500 g/ha [10, 13] | pest or weed control at 125 g/ha [10, 30] | pest or weed control at 250 g/ha ([10]; pre-emergence, Preemergence) | pest or weed control at 500 g/ha ([10]; pre-emergence, Preemergence)
80%: pest or weed control at 500 g/ha ([3]; pre-emergence, Preemergence) | pest or weed control at 62 g/ha [10, 29] | pest or weed control at 125 g/ha [10, 29]
20%: pest or weed control at 125 g/ha [11, 34]
85%: pest or weed control at 125 g/ha [3, 17] | pest or weed control at 250 g/ha [3, 13] | pest or weed control at 250 g/ha ([9]; pre-emergence, Preemergence)
35%: pest or weed control at 250 g/ha [11, 13] | pest or weed control at 500 g/ha [11, 13]
0%: pest or weed control at 62 g/ha [1, 12] | pest or weed control at 125 g/ha [1, 12] | pest or weed control at 250 g/ha [1, 13] | pest or weed control at 500 g/ha [1, 13] | pest or weed control at 62 g/ha [1, 14] | pest or weed control at 125 g/ha [1, 14] | pest or weed control at 250 g/ha ([1]; pre-emergence, Preemergence) | pest or weed control at 500 g/ha ([1]; pre-emergence, Preemergence) | pest or weed control at 62 g/ha [2, 15] | pest or weed control at 125 g/ha [2, 15] | pest or weed control at 62 g/ha [2, 16] | pest or weed control at 125 g/ha [2, 16] | pest or weed control at 250 g/ha ([2]; pre-emergence, Preemergence) | pest or weed control at 500 g/ha ([2]; pre-emergence, Preemergence) | pest or weed control at 62 g/ha [4, 19] | pest or weed control at 125 g/ha [4, 19] | pest or weed control at 250 g/ha [4, 13] | pest or weed control at 500 g/ha [4, 13] | pest or weed control at 62 g/ha [4, 20] | pest or weed control at 125 g/ha [4, 20] | pest or weed control at 250 g/ha ([4]; pre-emergence, Preemergence) | pest or weed control at 500 g/ha ([4]; pre-emergence, Preemergence) | plant injury at 62 g/ha [5, 21] | plant injury at 125 g/ha [5, 21] | plant injury at 250 g/ha [5, 13] | plant injury at 500 g/ha [5, 13] | plant injury at 62 g/ha [5, 22] | plant injury at 125 g/ha [5, 22] | plant injury at 250 g/ha ([5]; pre-emergence, Preemergence) | plant injury at 500 g/ha ([5]; pre-emergence, Preemergence) | Corn plant response rating (crop injury, 0 = no effect, 100 = complete kill) at 62 g/ha (corn (Zea mays); 62 g ai/ha) | Corn plant response rating (crop injury, 0 = no effect, 100 = complete kill) at 125 g/ha (corn (Zea mays); 125 g ai/ha) | Corn plant response rating (crop injury, 0 = no effect, 100 = complete kill) at 250 g/ha (corn (Zea mays); 250 g ai/ha) | pest or weed control at 62 g/ha [6, 23] | pest or weed control at 125 g/ha [6, 23] | pest or weed control at 62 g/ha [6, 24] | pest or weed control at 125 g/ha [6, 24] | pest or weed control at 250 g/ha ([6]; pre-emergence, Preemergence) | pest or weed control at 500 g/ha ([6]; pre-emergence, Preemergence) | pest or weed control at 62 g/ha [7, 25] | pest or weed control at 125 g/ha [7, 25] | pest or weed control at 250 g/ha [7, 13] | pest or weed control at 500 g/ha [7, 13] | pest or weed control at 62 g/ha [7, 26] | pest or weed control at 125 g/ha [7, 26] | pest or weed control at 250 g/ha ([7]; pre-emergence, Preemergence) | pest or weed control at 500 g/ha ([7]; pre-emergence, Preemergence) | pest or weed control at 62 g/ha [8, 27] | pest or weed control at 125 g/ha [8, 27] | pest or weed control at 250 g/ha [8, 13] | pest or weed control at 62 g/ha [8, 28] | pest or weed control at 125 g/ha [8, 28] | pest or weed control at 250 g/ha ([8]; pre-emergence, Preemergence) | pest or weed control at 500 g/ha ([8]; pre-emergence, Preemergence) | plant injury at 62 g/ha (soybean (Glycine max); [31]) | plant injury at 125 g/ha (soybean (Glycine max); [31]) | plant injury at 250 g/ha (soybean (Glycine max); [13]) | plant injury at 500 g/ha (soybean (Glycine max); [13]) | plant injury at 62 g/ha (soybean (Glycine max); [32]) | plant injury at 125 g/ha (soybean (Glycine max); [32]) | plant injury at 250 g/ha (soybean (Glycine max); pre-emergence, Preemergence) | plant injury at 500 g/ha (soybean (Glycine max); pre-emergence, Preemergence) | pest or weed control at 62 g/ha [11, 34]
45%: pest or weed control at 62 g/ha ([9]; pre-emergence, Preemergence, read-out: Plant response rating, Pigweed) | pest or weed control at 250 g/ha ([11]; pre-emergence, Preemergence) | pest or weed control at 500 g/ha ([11]; pre-emergence, Preemergence)
10%: pest or weed control at 62 g/ha [11, 33] | pest or weed control at 125 g/ha [11, 33]
15%: pest or weed control at 500 g/ha [6, 13]
95%: pest or weed control at 500 g/ha ([9]; pre-emergence, Preemergence)
98%: pest or weed control at 500 g/ha [3, 13] | pest or weed control at 250 g/ha [9, 13] | pest or weed control at 500 g/ha [9, 13]
5%: pest or weed control at 250 g/ha [2, 13] | pest or weed control at 500 g/ha [2, 13] | pest or weed control at 250 g/ha [6, 13] | pest or weed control at 500 g/ha [8, 13]
30%: pest or weed control at 62 g/ha [10, 30]
